# Assay results from PMC5244392, “Interspecies cathelicidin comparison reveals divergence in antimicrobial activity, TLR modulation, chemokine induction and regulation of phagocytosis” (Scientific Reports, 2017).
# What was measured:
# E. coli O78 = test: Sytox green membrane leakage assay; assay type: cell-based, Escherichia coli; details: 30 min at 37 °C, MHB or DMEM + FCS, peptide 0.31-20 μM; N = 3
# Protocol: Peptide dilutions and bacteria suspensions were prepared as described above for testing the antimicrobial activity in the Bioscreen C analyzer. Peptide dilutions and bacteria were mixed 1:1 and incubated for 30 minutes at 37 °C. Next, bacteria were washed once with PBS and transferred to black 96-wells assay plates (Corning, OH, USA). Bacteria were incubated with […] sytox green (Life technologies) (λex 504 nm and λem 523 nm) for 5 minutes after which fluorescence was measured using a FLUOstar Omega microplate reader (BMG Labtech GmbH, Ortenberg, Germany).
# The capacity of peptides to induce membrane leakage was tested using the permeability marker sytox green. […] For MRSA, fluorescence levels were generally very low even at >Cmax levels, hampering a good comparison between growth delay and permeabilization for this strain.
# Supplementary Figure 2: Bacterial membrane leakage
# E. Coli O78 and MRSA (1x10^6 CFU/ml) were grown in MHB or DMEM+FCS for 30 minutes at 37°C in the presence of diﬀerent concentrations of cathelicidins (0.31 µM, 0.63 µM, 1.25 µM, 2.5 µM, 5 µM, 10 µM, and 20 µM), after which the cells were stained with sytox green to measure membrane leakage. E. Coli in MHB, dark green line; E. Coli in DMEM, light green line; MRSA in MHB, dark blue line; MRSA in DMEM, light blue line. Results are presented as average +/- SEM (N = 3).
# Peptide concentration (µ M) […]
# S. aureus = test: MBC by plating wells without visible growth, S. aureus; assay type: cell-based, Staphylococcus aureus; details: S. aureus in DMEM; results not shown
# Protocol: In order to compare our Cmax with MBC values, wells without visible bacterial growth were plated out on TSA plates and incubated o/n at 37 °C to determine the presence of viable bacteria.
# The antimicrobial capacities were tested under the same conditions and expressed as growth delay instead of the more classical MIC/MBC determination using broth dilution assays. […] The fact that DMEM medium makes S. aureus susceptible to PR-39 is surprising since this peptide is thought to require active uptake by the SbmA transporter, only present in Gram – bacteria. The results obtained in this work, might indicate that the peptide possibly switches to a different mechanism of action with initially a bacteriostatic effect, but more thorough studies are required to elucidate the details of these initial observations.
# [1] = tested on: E. coli ATCC 25922 and S. aureus ATCC 29213; test: Bacterial growth delay, additional strains (Supplementary Fig. S1); assay type: cell-based, Escherichia coli; Staphylococcus aureus; details: E. coli ATCC 25922 and S. aureus ATCC 29213 compared with E. coli O78 and MRSA; MHB or DMEM + FCS; N = 2
# Protocol: E. coli O78 (Zoetis Animal Health, Kalamazoo, MI, USA), E. coli ATCC 25922, Staphylococcus aureus ATCC 29213, and methicillin resistant Staphylococcus aureus (MRSA) (WKZ-2, human clinical isolate) were grown overnight from a glycerol stock in Mueller Hinton Broth (MHB) (Becton Dickinson, USA). Before use, bacteria were grown to mid-log phase in MHB for 2 hours at 37 °C, 200 RPM. Murine RAW264.7 macrophages (ATCC-TIB-71) were obtained from the American Type Culture Collection (ATCC, Manassas, VA, USA) and cultured in DMEM (41966-029; Thermo Fisher Scientific, Waltham, MA, USA) supplemented with 10% FCS (Bodinco B.V., Alkmaar, the Netherlands) (DMEM + FCS) at 37 °C, 5.0% CO2. […]
# Peptides (0.63 to 40 μM) and bacteria mid-log cultures (2 * 10^6 CFU/ml) were prepared in MHB or DMEM + FCS and mixed (100 μl peptide + 100 μl bacterial culture) in a Bioscreen C analyzer plate (Oy Growth Curves Ab Ltd, Helsingfors, Finland). […] The OD was measured every 15 minutes using a wideband filter (450–580 nm) to measure bacterial growth. The time needed grow above an OD of 0.6 was determined for all concentrations. […]
# E. coli ATCC 25922 and S. aureus ATCC 29213 (1x10^6 CFU/ml) were grown in MHB or DMEM+FCS for 16 hours under constant shak ing (200 RPM) in the presence of diﬀerent concentration of cathelicidins (0.31 µM, 0.63 µM, 1.25 µM, 2.5 µM, 5 µM, 10 µM, and 20 µM). The OD was measured ever y 15 minutes. […]
sequence,measurement,setting,value
"RRRPRPPYLPRPRPPPFFPPRLPPRIPPGFPPRFPPRFP [PR-39, porcine proline-rich cathelicidin forming a polyproline helix, 39 residues, charge +10]","Membrane permeability (sytox green fluorescence), in words",E. coli O78,minimal permeability
same,Fold higher MBC than Cmax,S. aureus,16 fold
same,Fold difference in Cmax with other bacterial strains,[1],8–16 fold
